Measurements: patent US12605396B2, “Methods of treating mastitis with an orthosomycin antimicrobial compound” (Intervet Inc., priority 2020, dated 2026)
≈ marks a conversion by molar mass, not a printed value. Where “and” joins values, the source holds several entries; their conditions need not be identical. Identical values can stand only once. Entries after “also recorded” stand apart in the source; their conditions may differ. Like-named read-outs stand apart in the source and are kept apart here.

How the values were obtained:
[1] = system: S. aureus; assay: MIC in bacteriological broth (CLSI VET01-A4); type: cell-based, Staphylococcus aureus; details: for S. aureus MIC, CAMHB: bacteriological broth (CAMHB), individual S. aureus isolates; for Activity against S. aureus isolates in bacteriological broth: different S. aureus isolates
Protocol: (§1) Minimal inhibitory concentrations (MIC) were determined in bacteriological broth according to Clinical and Laboratory Standard Institute (CLSI) guideline VET01-A4 [1]. The MIC results were interpreted according to the CLSI document VET01-S3 [2].

[2] = system: S. aureus; assay: MIC in full cream UHT milk with alamar Blue; type: cell-based, Staphylococcus aureus; details: for S. aureus MIC, milk: individual S. aureus isolates, in µg/mL; for Distribution of MIC values: isolates with MIC 0.125 μg/ml / Distribution of MIC values: isolates with MIC 0.25 μg/ml / Distribution of MIC values: isolates with MIC 0.5 μg/ml / Distribution of MIC values: isolates with MIC 1 μg/ml / Distribution of MIC values: isolates with MIC 2 μg/ml / Distribution of MIC values: isolates with MIC 4 μg/ml / Distribution of MIC values: isolates with MIC 8 μg/ml / Distribution of MIC values: isolates with MIC 16 μg/ml / Distribution of MIC values: isolates with MIC 32 μg/ml / Distribution of MIC values: isolates with MIC 64 μg/ml / Distribution of MIC values: isolates with MIC >64 μg/ml / Distribution of MIC values: isolates with MIC ≤0.063 μg/ml / MIC90: S. aureus (n = 20)
Protocol: (§2) For MIC determination in milk, the in vitro activity was determined by measuring the minimum inhibitory concentrations (MIC) according to CLSI document VET01-A4 [1] using full cream UHT milk as test medium. About 2 h before the end of the incubation 10 μL of alamar Blue® was added to each well of the microdilution trays, resulting in a final concentration of 10% of alamar Blue®. Blue color of the medium indicated no living cells (no bacterial growth) red/pink to white color of the medium indicated living cells (bacterial growth). The MIC results were interpreted according to the CLSI document VET01-S3 [2].

[3] = system: Truep. pyogenes; assay: MIC in bacteriological broth (CLSI VET01-A4); type: cell-based, Trueperella pyogenes
Protocol: as §1

[4] = system: mastitis-causing pathogens; assay: Antimicrobial activity against mastitis-causing pathogens (overall statement); type: cell-based; details: broth-dilution assay and milk
Protocol: as §1, §2

[5] = system: S. uberis; assay: MIC in bacteriological broth (CLSI VET01-A4); type: cell-based, Streptococcus uberis
Protocol: as §1

[6] = system: Strep. dysgalactiae; assay: MIC in bacteriological broth (CLSI VET01-A4); type: cell-based, Streptococcus dysgalactiae
Protocol: as §1

[7] = system: Strep. agalactiae; assay: MIC in bacteriological broth (CLSI VET01-A4); type: cell-based, Streptococcus agalactiae
Protocol: as §1

[8] = system: coa-neg Staph.; assay: MIC in bacteriological broth (CLSI VET01-A4); type: cell-based, coagulase-negative staphylococci
Protocol: as §1

[9] = broth, of 15 Staph. aureus isolates
[10] = broth, of 15 Strep. uberis isolates
[11] = broth, of 15 Strep. dysgalactiae isolates
[12] = broth, of 15 Strep. agalactiae isolates
[13] = broth, of 15 coa-neg Staph. isolates

CC[C@@H](C(=O)[C@@H](C)[C@@H](O)[C@H](C)CCc1ccc(C)c(O)c1C(=O)O)[C@H]1O[C@](CC)([C@H]2CC[C@](O)(CC)[C@H](C)O2)C[C@@H]1C [Lasalocid, lasalocid]
S. aureus MIC, CAMHB [1]: 0.25 (3×) and 1 (4×) and 0.5
Activity against S. aureus isolates in bacteriological broth ([1]; bacteriological broth): active
Activity in milk [2]: no activity; also recorded: lost any activity
S. aureus MIC, milk [2]: >32

CC[C@@]1([C@@H]2O[C@@H]([C@H]3O[C@@](O)(CO)[C@H](C)C[C@@H]3C)C[C@@H]2C)CC[C@H]([C@]2(C)CC[C@]3(C[C@H](O)[C@@H](C)[C@@H]([C@@H](C)[C@@H](OC)[C@H](C)C(=O)O)O3)O2)O1 [Monensin, monensin]
S. aureus MIC, CAMHB [1]: 0.25 (2×) and 2 (6×)
Activity against S. aureus isolates in bacteriological broth ([1]; bacteriological broth): active
Activity in milk [2]: no activity; also recorded: lost any activity
S. aureus MIC, milk [2]: >32

CC1(C)S[C@@H]2[C@H](NC(=O)Cc3ccccc3)C(=O)N2[C@H]1C(=O)O [Penicillin G, penicillin G]
Distribution of MIC values: isolates with MIC 0.125 μg/ml [2]: 0
Distribution of MIC values: isolates with MIC 0.25 μg/ml [2]: 0
Distribution of MIC values: isolates with MIC 0.5 μg/ml [2]: 0
Distribution of MIC values: isolates with MIC 1 μg/ml [2]: 1
Distribution of MIC values: isolates with MIC 2 μg/ml [2]: 0
Distribution of MIC values: isolates with MIC 4 μg/ml [2]: 0
Distribution of MIC values: isolates with MIC 8 μg/ml [2]: 2
Distribution of MIC values: isolates with MIC 16 μg/ml [2]: 1
Distribution of MIC values: isolates with MIC 32 μg/ml [2]: 1
Distribution of MIC values: isolates with MIC 64 μg/ml [2]: 0
Distribution of MIC values: isolates with MIC >64 μg/ml [2]: 1
Distribution of MIC values: isolates with MIC ≤0.063 μg/ml [2]: 14
MIC90 [2]: 16 µg/mL (≈ 47.8 µM)

CC[C@@H](C(=O)[C@@H](C)[C@@H](O)[C@H](C)[C@@H]1O[C@@H]([C@@H](CC)C(=O)O)CC[C@@H]1C)[C@H]1O[C@]2(C=C[C@@H](O)[C@]3(CC[C@@](C)([C@H]4CC[C@](O)(CC)[C@H](C)O4)O3)O2)[C@H](C)C[C@@H]1C [Salinomycin, salinomycin]
S. aureus MIC, CAMHB [1]: 0.25 (2×) and 1 and 0.5 (5×)
Activity against S. aureus isolates in bacteriological broth ([1]; bacteriological broth): active
Activity in milk [2]: no activity; also recorded: lost any activity
S. aureus MIC, milk [2]: >32

COC[C@H]1O[C@@H](O[C@@H]2OC[C@@H]3O[C@@]4(OC[C@@H](OC(=O)c5c(C)cc(O)cc5O)[C@@H]5OCO[C@H]54)O[C@H]3[C@H]2O)[C@@H](OC)[C@@H](O)C1O[C@@H]1O[C@H](C)[C@H](OC)[C@H](OC2O[C@H](C)[C@H]3O[C@]4(C[C@@H](O)[C@H](O[C@H]5C[C@@H](O[C@H]6C[C@](C)([N+](=O)[O-])[C@@H](OC)[C@H](C)O6)[C@H](OC(=O)c6c(C)c(Cl)c(O)c(Cl)c6OC)[C@@H](C)O5)[C@@H](C)O4)O[C@]3(C)[C@@H]2O)[C@H]1O (stereo partly shown) [evernimicin]
MIC50 ([3]; Trueperella pyogenes, bacteriological broth, 15 Truep. pyogenes isolates tested, read-out: MIC50): ≤ 0.063 µg/mL
MIC90 ([3]; Trueperella pyogenes, bacteriological broth, 15 Truep. pyogenes isolates tested, read-out: MIC90): ≤ 0.063 µg/mL
MIC ([3]; Trueperella pyogenes, bacteriological broth, 15 Truep. pyogenes isolates tested, read-out: Maximum MIC): ≤ 0.063 µg/mL
MIC ([3]; Trueperella pyogenes, bacteriological broth, 15 Truep. pyogenes isolates tested, read-out: Minimum MIC): ≤ 0.063 µg/mL
Number of isolates with MIC ≤0.063 μg/mL ([3]; broth, of 15 Truep. pyogenes isolates): 15
Antimicrobial activity against mastitis-causing pathogens [4]: Good antimicrobial activity
MIC50 ([1]; Staphylococcus aureus, bacteriological broth, 15 Staph. aureus isolates tested, read-out: MIC50): 0.5 µg/mL (≈ 0.306 µM)
MIC90 ([1]; Staphylococcus aureus, bacteriological broth, 15 Staph. aureus isolates tested, read-out: MIC90): 0.5 µg/mL (≈ 0.306 µM)
MIC ([1]; Staphylococcus aureus, bacteriological broth, 15 Staph. aureus isolates tested, read-out: Maximum MIC): 0.5 µg/mL (≈ 0.306 µM)
MIC ([1]; Staphylococcus aureus, bacteriological broth, 15 Staph. aureus isolates tested, read-out: Minimum MIC): 0.125 µg/mL (≈ 0.0766 µM)
Number of isolates with MIC 0.125 μg/mL [1, 9]: 1
Number of isolates with MIC 0.25 μg/mL [1, 9]: 2
Number of isolates with MIC 0.5 μg/mL [1, 9]: 12
MIC50 ([5]; Streptococcus uberis, bacteriological broth, 15 Strep. uberis isolates tested, read-out: MIC50): 0.25 µg/mL (≈ 0.153 µM)
MIC90 ([5]; Streptococcus uberis, bacteriological broth, 15 Strep. uberis isolates tested, read-out: MIC90): 0.5 µg/mL (≈ 0.306 µM)
MIC ([5]; Streptococcus uberis, bacteriological broth, 15 Strep. uberis isolates tested, read-out: Maximum MIC): 0.5 µg/mL (≈ 0.306 µM)
MIC ([5]; Streptococcus uberis, bacteriological broth, 15 Strep. uberis isolates tested, read-out: Minimum MIC): 0.125 µg/mL (≈ 0.0766 µM)
Number of isolates with MIC 0.125 μg/mL [5, 10]: 2
Number of isolates with MIC 0.25 μg/mL [5, 10]: 10
Number of isolates with MIC 0.5 μg/mL [5, 10]: 3
MIC50 ([6]; Streptococcus dysgalactiae, bacteriological broth, 15 Strep. dysgalactiae isolates tested, read-out: MIC50): 0.125 µg/mL (≈ 0.0766 µM)
MIC90 ([6]; Streptococcus dysgalactiae, bacteriological broth, 15 Strep. dysgalactiae isolates tested, read-out: MIC90): 0.25 µg/mL (≈ 0.153 µM)
MIC ([6]; Streptococcus dysgalactiae, bacteriological broth, 15 Strep. dysgalactiae isolates tested, read-out: Maximum MIC): 0.25 µg/mL (≈ 0.153 µM)
MIC ([6]; Streptococcus dysgalactiae, bacteriological broth, 15 Strep. dysgalactiae isolates tested, read-out: Minimum MIC): 0.125 µg/mL (≈ 0.0766 µM)
Number of isolates with MIC 0.125 μg/mL [6, 11]: 11
Number of isolates with MIC 0.25 μg/mL [6, 11]: 4
MIC90 against S. aureus compared with MIC90 of penicillin G [2]: identical
Distribution of MIC values: isolates with MIC 0.125 μg/ml [2]: 0
Distribution of MIC values: isolates with MIC 0.25 μg/ml [2]: 0
Distribution of MIC values: isolates with MIC 0.5 μg/ml [2]: 0
Distribution of MIC values: isolates with MIC 1 μg/ml [2]: 0
Distribution of MIC values: isolates with MIC 2 μg/ml [2]: 0
Distribution of MIC values: isolates with MIC 4 μg/ml [2]: 4
Distribution of MIC values: isolates with MIC 8 μg/ml [2]: 11
Distribution of MIC values: isolates with MIC 16 μg/ml [2]: 5
Distribution of MIC values: isolates with MIC 32 μg/ml [2]: 0
Distribution of MIC values: isolates with MIC 64 μg/ml [2]: 0
Distribution of MIC values: isolates with MIC >64 μg/ml [2]: 0
Distribution of MIC values: isolates with MIC ≤0.063 μg/ml [2]: 0
MIC90 ([2]; Staphylococcus aureus, read-out: MIC90): 16 µg/mL (≈ 9.81 µM)
MIC50 ([7]; Streptococcus agalactiae, bacteriological broth, 15 Strep. agalactiae isolates tested, read-out: MIC50): 0.125 µg/mL (≈ 0.0766 µM)
MIC90 ([7]; Streptococcus agalactiae, bacteriological broth, 15 Strep. agalactiae isolates tested, read-out: MIC90): 0.25 µg/mL (≈ 0.153 µM)
MIC ([7]; Streptococcus agalactiae, bacteriological broth, 15 Strep. agalactiae isolates tested, read-out: Maximum MIC): 0.25 µg/mL (≈ 0.153 µM)
MIC ([7]; Streptococcus agalactiae, bacteriological broth, 15 Strep. agalactiae isolates tested, read-out: Minimum MIC): 0.125 µg/mL (≈ 0.0766 µM)
Number of isolates with MIC 0.125 μg/mL [7, 12]: 12
Number of isolates with MIC 0.25 μg/mL [7, 12]: 3
MIC50 ([8]; bacteriological broth, 15 coa-neg Staph. isolates tested, read-out: MIC50): 0.5 µg/mL (≈ 0.306 µM)
MIC90 ([8]; bacteriological broth, 15 coa-neg Staph. isolates tested, read-out: MIC90): 1 µg/mL (≈ 0.613 µM)
MIC ([8]; bacteriological broth, 15 coa-neg Staph. isolates tested, read-out: Maximum MIC): 8 µg/mL (≈ 4.9 µM)
MIC ([8]; bacteriological broth, 15 coa-neg Staph. isolates tested, read-out: Minimum MIC): 0.25 µg/mL (≈ 0.153 µM)
Number of isolates with MIC 0.25 μg/mL [8, 13]: 6
Number of isolates with MIC 0.5 μg/mL [8, 13]: 6
Number of isolates with MIC 1 μg/mL [8, 13]: 2
Number of isolates with MIC 8 μg/mL [8, 13]: 1
